Measured values: US7572454B2, “T helper cell epitopes” (priority 1999, dated 2009)

Key:
[1] = test system: PBMCs from dogs immunised with CDV; experiment: T-cell proliferation after in vitro stimulation of PBMC with peptide pools, tested with autologous APCs and single peptides; format: cell-based, dog; conditions: for reaction with peripheral blood mononuclear cells: dogs of various breeds immunised with CDV
Procedure: An alternate strategy was used to increase the precursor frequency of specific T cells recognising the CDV peptides. Fresh PBMCs obtained from these hyperimmunised dogs were subjected to stimulation in vitro with pools of all 94 peptides for 30 minutes at 37° C. The cells were then washed to remove any excess peptides and cultured for 7 days. This population of T cells was then tested with autologous APCs with every single peptide as the antigen.
To confirm this observation, the same four dogs were bled again, five weeks after receiving the dose of killed virus. The PBMCs were stimulated in vitro with pools of either all 94 peptides or peptides 21-40 (because most of the activity was in this region) and after 7 days of culture the stimulated T cells were tested against individual peptides. Significant stimulatory indices were obtained with all peptides, confirming the above results. Four more dogs which received only one dose of 3 in 1 vaccine were tested using the in vitro stimulation method and all four dogs responded to the majority of peptides shown in Table 2.
Once again the same peptides and one additional peptide P32 were tested on cells from additional dogs.

[2] = test system: LHRH; experiment: Trial in BALB/c mice: antibody response to LHRH by ELISA; format: in vivo; conditions: BALB/c mice
Procedure: The canine vaccines with CDV-F derived Th-epitopes and LHRH used in Example 3 were also used to immunise BALB/c mice to investigate if the Th-epitopes would be functional in a different animal species.
All vaccines were formulated as for Example 3 except that they were diluted further so that 100 μl doses contained 2.7 nmoles of peptide and 10 μg of Iscomatrix™ and thiomersol as preservative.
Mice were vaccinated with 100 μl of the vaccine at the base of tail. Vaccinations were given at 0 and 4 weeks and animals bled at intervals after each vaccination from the retro-orbital plexus. Effective T-cell help was determined by measuring the antibody response to LHRH by ELISA.

[3] = Table 1, Beagle Foxhound (Dog #18), hyperimmunised, PBMC stimulated with pool of all 94 peptides, 7 days culture
[4] = Table 1, Beagle Foxhound (Dog #19)
[5] = Table 1, Beagle Foxhound (Dog #20)
[6] = Table 1, Beagle Foxhound (Dog #21)
[7] = Table 3, Kelpie Foxhound (Dog #125)
[8] = Table 2, Beagle Foxhound (Dog #71), one dose of 3 in 1 vaccine
[9] = Table 2, Beagle Foxhound (Dog #72), one dose of 3 in 1 vaccine

| Sequence | Stimulatory index [1, 3] | Stimulatory index [1, 4] | Stimulatory index [1, 5] | Stimulatory index [1, 6] | Stimulatory index [1, 7] | Stimulatory index ([1]; Table 5, Border Collie) | Stimulatory index ([1]; Table 5, Fox Terrier) | Stimulatory index ([1]; Table 5, Grey hound) | Stimulatory index ([1]; Table 5, Kelpie Pointer) | Stimulatory index ([1]; Table 5, Poodle Shitzu) | Stimulatory index ([1]; Table 5, Terrier Cross) | other results |
| --- | --- | --- | --- | --- | --- | --- | --- | --- | --- | --- | --- | --- |
| CIRGDTSSCARTLVSGT (canine distemper virus; synthetic peptide from canine distemper virus fusion protein (CDV-F) designated peptide P68) | 6.6 | <2 | <2 | 11.7 | 2.9 | <2 | <2 | <2 | <2 | 5 | <2 |  |
| DESSCVFVSESAICSQN (canine distemper virus; synthetic peptide from canine distemper virus fusion protein (CDV-F) designated peptide P64) |  |  |  |  |  | <2 | <2 | <2 | <2 | 50 | <2 | Stimulatory index ([1]; Table 4, Beagle Foxhound #19): 2.5; Stimulatory index ([1]; Table 4, Beagle Foxhound #20): 2.5; Stimulatory index ([1]; Table 4, Poodle Shitzu): 50.0; reaction with peripheral blood mononuclear cells [1]: react strongly |
| EPINQALTLMTKNVKPL (canine distemper virus; synthetic peptide from canine distemper virus fusion protein (CDV-F) designated peptide P29) | 3.5 | 42 | 4.4 | <2 | 3.6 | <2 | <2 | <2 | <2 | 2 | 2 | Stimulatory index [1, 8]: 2; Stimulatory index ([1]; Table 2, Beagle Foxhound (Dog #73), one dose of 3 in 1 vaccine): 6 |
| EQSNKAIEEIREATQET (canine distemper virus; synthetic peptide from canine distemper virus fusion protein (CDV-F) designated peptide P39) |  |  |  |  | 2.9 |  |  |  |  |  |  |  |
| FAGVVLAGVALGVATAA (canine distemper virus; synthetic peptide from canine distemper virus fusion protein (CDV-F) designated peptide P33) |  |  |  |  | 6 | 2 | <2 | <2 | 2 | <2 | <2 | Stimulatory index [1, 9]: 1.6 |
| GIALHQSNLNAQAIQSL (canine distemper virus; synthetic peptide from canine distemper virus fusion protein (CDV-F) designated peptide P36) | 6.7 | 3.7 | 3.3 | 16 | 3 |  |  |  |  |  |  |  |
| GVALGVATAAQITAGIA [Peptide P34] |  |  |  |  | 2.1 |  |  |  |  |  |  |  |
| IGTDNVHYKIMTRPSHQ (canine distemper virus; synthetic peptide from canine distemper virus fusion protein (CDV-F) designated peptide P22) |  |  |  |  |  |  |  |  |  |  |  | Stimulatory index [1, 9]: 2.6 |
| KLLNSVLEPINQALTLM (canine distemper virus; synthetic peptide from canine distemper virus fusion protein (CDV-F) designated peptide P28) |  |  |  |  | 1.9 |  |  |  |  |  |  | Stimulatory index [1, 8]: 2 |
| NLNAQAIQSLRTSLEQS (canine distemper virus; synthetic peptide from canine distemper virus fusion protein (CDV-F) designated peptide P37) | 6.9 | 10.9 | 8.2 | 26 | 2.5 | <2 | <2 | <2 | 2 | <2 | 2 | Stimulatory index [1, 9]: 1.7 |
| PRTSDRPVSYTMNRTRS (canine distemper virus; synthetic peptide from canine distemper virus fusion protein (CDV-F) designated peptide P8) |  |  |  |  |  | 2 | <2 | 2 | 2.8 | 100 | <2 | Stimulatory index ([1]; Table 2, Beagle Foxhound (Dog #70), one dose of 3 in 1 vaccine): 2.2; antibody titres to LHRH [2]: undetectable levels |
| QPSTELEETRTSRARHS (canine distemper virus; synthetic peptide from canine distemper virus fusion protein (CDV-F) designated peptide P4) | 4.9 | <2 | 3.3 | 4.6 |  | 2 | <2 | 2 | 3.5 | 44 | 2 |  |
| QSLRTSLEQSNKAIEEI (canine distemper virus; synthetic peptide from canine distemper virus fusion protein (CDV-F) designated peptide P38) | 2.8 | 6.7 | 3.6 | 4.2 | 2.2 |  |  |  |  |  |  |  |
| RHSTTSAQRSTHYDPRT (canine distemper virus; synthetic peptide from canine distemper virus fusion protein (CDV-F) designated peptide P6) | 2.5 | <2 | 4 | 5.1 |  | 2 | <2 | <2 | <2 | 38 | <2 |  |
| SGRRQRRFAGVVLAGVA (canine distemper virus; synthetic peptide from canine distemper virus fusion protein (CDV-F) designated peptide P32) |  |  |  |  |  | <2 | <2 | 2 | <2 | <2 | <2 |  |
| SHQYLVIKLIPNASLIE (canine distemper virus; synthetic peptide from canine distemper virus fusion protein (CDV-F) designated peptide P24) | 5.8 | 9.9 | 2.8 | 29 |  |  |  |  |  |  |  | Stimulatory index [1, 8]: 3.2; Stimulatory index [1, 9]: 2.2 |
| TELLSIFGPSLRDPISA (canine distemper virus; synthetic peptide from canine distemper virus fusion protein (CDV-F) designated peptide P47) | 3.3 | 85.7 | 2.9 | 1.9 | 2.7 |  |  |  |  |  |  |  |
| TRSRKQTSHRLKNIPVH (canine distemper virus; synthetic peptide from canine distemper virus fusion protein (CDV-F) designated peptide P10) | 2.3 | <2 | 3.2 | 9.1 |  | 3 | 2.2 | 2 | 2.4 | 50 | 2.1 |  |
| TSTIINQSPDKLLTFIA (canine distemper virus; synthetic peptide from canine distemper virus fusion protein (CDV-F) designated peptide P74) |  |  |  |  |  | <2 | <2 | <2 | <2 | 4 | <2 | Stimulatory index ([1]; Table 4, Beagle Foxhound #20): 1.7; Stimulatory index ([1]; Table 4, Beagle Foxhound #21): 6.0; Stimulatory index ([1]; Table 4, Poodle Shitzu): 4.0; reaction with peripheral blood mononuclear cells [1]: react strongly |
| YKIMTRPSHQYLVIKLI (canine distemper virus; synthetic peptide from canine distemper virus fusion protein (CDV-F) designated peptide P23) |  |  |  |  | 3.2 |  |  |  |  |  |  |  |
